The test system of assay [1] is APESV. Briefly: greenhouse pre-emergence herbicidal test. In kind it is in vivo, Apera spica-venti. Conditions: pre-emergence method, scale from 0 to 100. The text has this: (§1) The seeds of the test plants were sown separately for each species. For the pre-emergence treatment, the active ingredients, which had been suspended or emulsified in water, were applied directly after sowing by means of finely distributing nozzles. The containers were irrigated gently to promote germination and growth and subsequently covered with transparent plastic hoods until the plants had rooted. This cover caused uniform germination of the test plants, unless this had been impaired by the active ingredients. Depending on the species, the plants were kept at 10-25° C. or 20-35° C., respectively. The test period extended over 2 to 4 weeks. During this time, the plants were tended, and their response to the individual treatments was evaluated. Evaluation was carried out using a scale from 0 to 100. 100 means no emergence of the plants, or complete destruction of at least the aerial moieties, and 0 means no damage, or normal course of growth. […] The plants used in the greenhouse experiments were of the following species: [table]

The subject of assay [2] is ECHCG. Description: greenhouse pre-emergence herbicidal test. In kind it is in vivo, Echinocloa crus-galli. Conditions: pre-emergence method, scale from 0 to 100.
Description: as §1

The subject of assay [3] is ECHCG. Description: greenhouse post-emergence herbicidal test. In kind it is in vivo, Echinocloa crus-galli. Conditions: post-emergence method, scale from 0 to 100. The text has this: (§2) The seeds of the test plants were sown separately for each species. For the post-emergence treatment, the test plants were first grown to a height of 3 to 15 cm, depending on the plant habit, and only then treated with the active ingredients which had been suspended or emulsified in water. For this purpose, the test plants were either sown directly and grown in the same containers, or they were first grown separately as seedlings and transplanted into the test containers a few days prior to treatment. Depending on the species, the plants were kept at 10-25° C. or 20-35° C., respectively. The test period extended over 2 to 4 weeks. During this time, the plants were tended, and their response to the individual treatments was evaluated. Evaluation was carried out using a scale from 0 to 100. 100 means no emergence of the plants, or complete destruction of at least the aerial moieties, and 0 means no damage, or normal course of growth. […] The plants used in the greenhouse experiments were of the following species: [table]

Assay [4] concerns ALOMY. Briefly: greenhouse post-emergence herbicidal test. In kind it is in vivo, Alopercurus myosuroides. The settings on record: post-emergence method, scale from 0 to 100.
Description: as §2

In the case of `CCc1ncc(-c2cc(C)ccc2Cl)c(C(=O)O)n1` [example 7], the “herbicidal activity against APESV” value in assay [1] (application rate 1000 g/ha) was “very good (a very good herbicidal activity is given at values of at least 85)”. In addition, the “herbicidal activity against ECHCG” value in assay [2] (application rate 1000 g/ha) is listed as “very good (a very good herbicidal activity is given at values of at least 85)”.
As to `CCc1ncc(-c2cc(F)ccc2C)c(C(=O)O)n1` [example 10], the “herbicidal activity against APESV” value in assay [1] (application rate 500 g/ha) is “very good (a very good herbicidal activity is given at values of at least 85)”. Also, the “herbicidal activity against ECHCG” value in assay [2] (application rate 500 g/ha) is “very good (a very good herbicidal activity is given at values of at least 85)”.
As to `CCc1ncc(-c2ccccc2Cl)c(C(=O)OC)n1` [example 19], the “herbicidal activity against APESV” value in assay [1] (application rate 1000 g/ha) is recorded as “very good (a very good herbicidal activity is given at values of at least 85)”. In assay [2] (application rate 1000 g/ha), the “herbicidal activity against ECHCG” value is “very good (a very good herbicidal activity is given at values of at least 85)”.
Take `CCc1ncc(-c2cc(C)ccc2Cl)c(C(=O)OC)n1` [example 20]: in assay [1] (application rate 1000 g/ha), the “herbicidal activity against APESV” value is “very good (a very good herbicidal activity is given at values of at least 85)”. The “herbicidal activity against ECHCG” value in assay [3] (application rate 1000 g/ha) was “good (A good herbicidal activity is given at values of at least 70)”; in assay [2] (application rate 1000 g/ha), “very good (a very good herbicidal activity is given at values of at least 85)”.
Take `CCc1ncc(-c2cc(Cl)ccc2C)c(C(=O)OC)n1` [example 22]: in assay [1] (application rate 1000 g/ha), the “herbicidal activity against APESV” value was “good (A good herbicidal activity is given at values of at least 70)”. Moreover, the “herbicidal activity against ECHCG” value in assay [2] (application rate 1000 g/ha) is “good (A good herbicidal activity is given at values of at least 70)”.
With `CCc1ncc(-c2cc(C)ccc2C)c(C(=O)OC)n1` [example 23], in assay [1] (application rate 1000 g/ha), the “herbicidal activity against APESV” value is “very good (a very good herbicidal activity is given at values of at least 85)”. Besides, the “herbicidal activity against ECHCG” value in assay [2] (application rate 1000 g/ha) was “very good (a very good herbicidal activity is given at values of at least 85)”.
Turning to `COC(=O)c1nc(C(C)C)ncc1-c1cc(C)ccc1C` [example 38], the “herbicidal activity against APESV” value in assay [1] (application rate 1000 g/ha) is on record as “good (A good herbicidal activity is given at values of at least 70)”. The “herbicidal activity against ECHCG” value in assay [2] (application rate 1000 g/ha) is “very good (a very good herbicidal activity is given at values of at least 85)”.
For the molecule `COc1ncc(-c2ccccc2C)c(C(=O)O)n1` [example 52], the “herbicidal activity against APESV” value in assay [1] (application rate 2000 g/ha) is reported as “very good (a very good herbicidal activity is given at values of at least 85)”. The “herbicidal activity against ALOMY” value in assay [4] (application rate 2000 g/ha) is recorded as “good (A good herbicidal activity is given at values of at least 70)”. Also, the “herbicidal activity against ECHCG” value in assay [2] (application rate 2000 g/ha) was “good (A good herbicidal activity is given at values of at least 70)”.
As to `COc1ncc(-c2ccc(C)cc2C)c(C(=O)O)n1` [example 57], the “herbicidal activity against APESV” value in assay [1] (application rate 1000 g/ha) is on record as “very good (a very good herbicidal activity is given at values of at least 85)”. Besides, the “herbicidal activity against ECHCG” value in assay [2] (application rate 1000 g/ha) was “very good (a very good herbicidal activity is given at values of at least 85)”.
Consider `COC(=O)c1nc(OC)ncc1-c1cc(F)ccc1C` [example 62], for which the “herbicidal activity against APESV” value in assay [1] (application rate 1000 g/ha) is “very good (a very good herbicidal activity is given at values of at least 85)”. The “herbicidal activity against ECHCG” value in assay [2] (application rate 1000 g/ha) is listed as “good (A good herbicidal activity is given at values of at least 70)”.
For the molecule `COc1ccc(F)c(-c2cnc(SC)nc2C(=O)O)c1` [example 83], in assay [3] (application rate 2000 g/ha), the “herbicidal activity against ECHCG” value is on record as “good (A good herbicidal activity is given at values of at least 70)”.
Turning to `COc1ccc(-c2cnc(SC)nc2C(=O)O)c(C)c1` [example 100], the “herbicidal activity against ECHCG” value in assay [3] (application rate 2000 g/ha) is given as “good (A good herbicidal activity is given at values of at least 70)”.
`O=C(O)c1nc(C2CC2)ncc1-c1cc(Br)ccc1F` [example 135]: the “herbicidal activity against APESV” value in assay [1] (application rate 1000 g/ha) is listed as “very good (a very good herbicidal activity is given at values of at least 85)”. The “herbicidal activity against ALOMY” value in assay [4] (application rate 1000 g/ha) was “herbicidal activity”.
With `COc1ccc(Br)c(-c2cnc(C3CC3)nc2C(=O)O)c1` [example 153], the “herbicidal activity against APESV” value in assay [1] (application rate 1000 g/ha) is on record as “very good (a very good herbicidal activity is given at values of at least 85)”. In assay [3] (application rate 1000 g/ha), the “herbicidal activity against ECHCG” value was “very good (a very good herbicidal activity is given at values of at least 85)”.
For the molecule `N#Cc1ccccc1-c1cnc(C2CC2)nc1C(=O)O` [example 154], the “herbicidal activity against APESV” value in assay [1] (application rate 500 g/ha) is “very good (a very good herbicidal activity is given at values of at least 85)”. The results for the “herbicidal activity against ECHCG” value in assay [3] (application rate 500 g/ha) and in assay [2] (application rate 500 g/ha) were “good (A good herbicidal activity is given at values of at least 70)” and “very good (a very good herbicidal activity is given at values of at least 85)”, respectively. Besides, the “herbicidal activity against ALOMY” value in assay [4] (application rate 500 g/ha) is given as “very good (a very good herbicidal activity is given at values of at least 85)”.
On to `O=C(O)c1nc(C2CC2)ncc1-c1ccccc1[N+](=O)[O-]` [example 160], for which the “herbicidal activity against APESV” value in assay [1] (application rate 1000 g/ha) is “very good (a very good herbicidal activity is given at values of at least 85)”. Also, the “herbicidal activity against ECHCG” value in assay [3] (application rate 1000 g/ha) and in assay [2] (application rate 1000 g/ha) was “very good (a very good herbicidal activity is given at values of at least 85)” throughout.
For `CC(C)c1ccccc1-c1cnc(C2CC2)nc1C(=O)O` [example 175], in assay [1] (application rate 1000 g/ha), the “herbicidal activity against APESV” value was “very good (a very good herbicidal activity is given at values of at least 85)”. In addition, the “herbicidal activity against ECHCG” value in assay [2] (application rate 1000 g/ha) is recorded as “very good (a very good herbicidal activity is given at values of at least 85)”.
With `COc1ccccc1-c1cnc(C2CC2)nc1C(=O)O` [example 177], the “herbicidal activity against APESV” value in assay [1] (application rate 1000 g/ha) is listed as “very good (a very good herbicidal activity is given at values of at least 85)”. The “herbicidal activity against ECHCG” value in assay [3] (application rate 1000 g/ha) is “good (A good herbicidal activity is given at values of at least 70)”; in assay [2] (application rate 1000 g/ha), “very good (a very good herbicidal activity is given at values of at least 85)”.
For the molecule `COc1ccc(OC)c(-c2cnc(C3CC3)nc2C(=O)O)c1` [example 179], the “herbicidal activity against APESV” value in assay [1] (application rate 2000 g/ha) is “very good (a very good herbicidal activity is given at values of at least 85)”. Also, the “herbicidal activity against ECHCG” value in assay [3] (application rate 2000 g/ha) is “very good (a very good herbicidal activity is given at values of at least 85)”.
As to `COCOc1ccccc1-c1cnc(C2CC2)nc1C(=O)O` [example 180], the “herbicidal activity against APESV” value in assay [1] (application rate 1000 g/ha) is given as “very good (a very good herbicidal activity is given at values of at least 85)”. The “herbicidal activity against ECHCG” value in assay [3] (application rate 1000 g/ha) and in assay [2] (application rate 1000 g/ha) was “very good (a very good herbicidal activity is given at values of at least 85)” throughout.
In the case of `C=Cc1ccccc1-c1cnc(C2CC2)nc1C(=O)O` [example 183], the “herbicidal activity against APESV” value in assay [1] (application rate 500 g/ha) is “very good (a very good herbicidal activity is given at values of at least 85)”. Also, the “herbicidal activity against ECHCG” value in assay [2] (application rate 500 g/ha) is reported as “very good (a very good herbicidal activity is given at values of at least 85)”.
Consider `O=C(O)c1nc(C2CC2)ncc1-c1ccccc1C1CC1` [example 187], for which the “herbicidal activity against APESV” value in assay [1] (application rate 1000 g/ha) is on record as “very good (a very good herbicidal activity is given at values of at least 85)”. The “herbicidal activity against ECHCG” value in assay [3] (application rate 1000 g/ha) and in assay [2] (application rate 1000 g/ha) was “very good (a very good herbicidal activity is given at values of at least 85)” each time.
`COC(=O)c1nc(C2CC2)ncc1-c1cc(C)ccc1C` [example 228]: the “herbicidal activity against APESV” value in assay [1] (application rate 2000 g/ha) was “very good (a very good herbicidal activity is given at values of at least 85)”. Also, the “herbicidal activity against ECHCG” value in assay [3] (application rate 2000 g/ha) is on record as “very good (a very good herbicidal activity is given at values of at least 85)”. In assay [4] (application rate 2000 g/ha), the “herbicidal activity against ALOMY” value is reported as “very good (a very good herbicidal activity is given at values of at least 85)”.
Regarding `COC(=O)c1nc(C2CC2)ncc1-c1ccc(OC)cc1Cl` [example 294], the “herbicidal activity against ECHCG” value in assay [3] (application rate 1000 g/ha) is on record as “good (A good herbicidal activity is given at values of at least 70)”.
In the case of `COc1ccc(-c2cnc(C3CC3)nc2C(=O)O)c(Cl)c1` [example 296], in assay [1] (application rate 1000 g/ha), the “herbicidal activity against APESV” value is reported as “very good (a very good herbicidal activity is given at values of at least 85)”.
The same measure, in the same setting: under `COc1ccc(-c2cnc(C3CC3)nc2C(=O)O)c(F)c1` [example 297] stands “very good (a very good herbicidal activity is given at values of at least 85)”.
In the case of `COc1cc(F)ccc1-c1cnc(C2CC2)nc1C(=O)O` [example 301], the “herbicidal activity against APESV” value in assay [1] (application rate 1000 g/ha) is listed as “good (A good herbicidal activity is given at values of at least 70)”. Besides, in assay [2] (application rate 1000 g/ha), the “herbicidal activity against ECHCG” value was “very good (a very good herbicidal activity is given at values of at least 85)”.

The values above are taken from patent US10420341B2, “Herbicidal phenylpyrimidines” (BASF SE, priority 2015, dated 2019).
